In patent US5876715A, “Antibodies that bind novel carbohydrate ligands (myelorollins) that cause E-selectin dependent cell rolling, and uses thereof” (The Biomembrane Institute, priority 1996, dated 1999):
Entries after “also recorded” stand apart in the source; their conditions may differ.

System: E-selectin-expressing CHO cells
Assay: Static adhesion of E-selectin-expressing CHO cells to gangliosides coated on polystyrene beads affixed to glass slides
Assay type: cell-based, Chinese hamster
Details: static conditions, ganglioside coated on polystyrene beads affixed on glass slides
Description: Polystyrene beads (1 μm diameter) were spread and affixed to glass microscope slides as described in Materials & Methods, added with 100 ng of poly-LacNac ganglioside dissolved in isopropanol-hexane-water (50:45:10), allowed to dry for 1 hr, and immersed in PBS containing 2% BSA. The slides were placed in Petri dishes and overlaid with RPMI medium containing E-selectin-expressing CHO cells (1×10^5 /cells mL). After 10 min incubation, slides were washed with PBS and total numbers of cells adhered on beads were counted. Each point represents one experiment. Horizontal lines indicate arithmetic means.
Gangliosides coated on polystyrene beads affixed on glass slides as described above and placed in petri dishes were incubated with E-selectin-expressing CHO cells in 1% FCS-RPMI medium. After 30 min, slides were washed 3 times with PBS, and numbers of adherent cells were counted under a microscope.
Polystyrene latex beads were affixed on glass microscope slides, added with 1 nmol of ganglioside fraction dissolved in isopropanol-hexane-water (50:45:10), allowed to dry for 1 hr, and then immersed in PBS(+) containing 1% bovine serum albumin. The slides were placed in Petri dishes containing permanently E-selectin-expressing CHO cells (1×10^5) in RPMI medium. After 30 min. incubation, slides were washed with PBS and total numbers of cells adhered on the affixed beads were counted. Sdiy^2 is sialyl-Le^x -Le^x (VI^3 NeuAcV^3 FucIII^3 FucnLc6 Cer).
Static adhesion assay using polystyrene latex beads: In order to observe static adhesion with the same matrix used for dynamic adhesion assay, the following procedure was used. Polystyrene latex beads of 1 μm or 4 μm diameter (IDC Spheres™; IDC, Portland, Oreg.), affixed to objective microscope slides, were used as carriers of poly-LacNAc GSLs. 30 μL of the 4 μm diameter bead suspension (containing 2×10^9beads/mL) or 60 μL of 1 μm bead suspension (containing 1×10^11 beads/mL) were placed in Eppendorf tubes and washed with absolute ethanol 3×. Sedimented 4 μm beads were suspended in […] ethanol, and sedimented 1 μm beads were suspended in 2 mL ethanol. 1 μL aliquots of these suspensions were placed on freshly opened microscope slides (Labcraft Superfrost® Plus, Curtin Matheson Scientific, Houston, Tex.). Beads were distributed homogeneously on the glass surface within a circular spot with diameter ≈1 cm. Slides were heated at 150° C. for 50 sec, which caused the beads to adhere strongly to the surface such that they could not be washed off by water stream at various velocities. Gangliosides dissolved in isopropanol-hexane-water at the same molar concentration were applied to latex beads affixed to the slides; namely, 1 μL aliquots containing 50-100 ng ganglioside were placed on the center of the circular spot. The ganglioside thus became affixed to the bead surface. Plates were immersed in 3% BSA in PBS for 1 hr at room temp, and washed 3× with PBS containing Ca^2+ /Mg^2+.
Plates were overlaid with 5×10^5 CHO cells freshly harvested and suspended in RPMI culture medium for 15 min without moving. Washing with RPMI 3× was usually sufficient to eliminate non-adherent cells from beads. However, careful microscopic examination had to be repeated until the cells placed on control polystyrene beads were washed out. Plates were then fixed with 1% glutaraldehyde in PBS and number of cells adhered to the layer of poly-LacNAc ganglioside-coated beads were counted.

| Substance | adhesion of E-selectin-expressing CHO cells (number of cells adhered on beads) | further results |
| --- | --- | --- |
| X^3 NeuAcVII^3 FucV^3 FucnLc10 Cer [Fr. 13-1] | less than numbers binding to Str. 3 | – |
| VI^3 NeuAcnLc6 Cer [Fr. 7] | no adhesion | adhesion of E-selectin-expressing CHO cells (number of cells adhered on beads) (listed as Str. 1): did not bind |
| X^3 NeuAcVII^3 FucnLc10 Cer [Fr. 12-2] | much weaker adhesion than Fr. 13-1 or Fr. 14 | adhesion of E-selectin-expressing CHO cells (number of cells adhered on beads) (listed as Str. 6): do not show appreciable adhesion |
| VIII^3 NeuAcV^3 FucnLc8 Cer [Fr. 10-1] | much weaker adhesion than Fr. 13-1 or Fr. 14 | adhesion of E-selectin-expressing CHO cells (number of cells adhered on beads) (listed as Str. 4): do not show appreciable adhesion |
| VI^3 NeuAcV^3 FucIII^3 FucnLc6 Cer [SLe^x -Le^x, reference compound] | greatest cell adhesion; also recorded: highest adhesion; also recorded: slightly higher adhesion than Fr. 13-1; also recorded: highest binding; also recorded: higher number of E-selectin-expressing cells adhered | adhesion of E-selectin-expressing CHO cells (number of cells adhered on beads) (listed as Str. 3): much higher number of cells bound; also recorded: much higher adhesion than myelorollin |
| VIII^3 NeuAcIII^3 FucnLc8 Cer [Fr. 10-2] | much weaker adhesion than Fr. 13-1 or Fr. 14 | – |
